Results as given in patent US20190022225A1, “PROTOCOL FOR INCREASING LIFE EXPECTANCY IN A TEST SUBJECT” (Mayo Foundation for Medical Education and Research, priority 2015, published 2019).

Assays:
[1] = system: 3MR or INK-ATTAC mice exposed to cigarette smoke; assay: Cigarette smoke exposure model (COPD), oxygen saturation; type: in vivo, mouse; conditions: after 2 months of cigarette smoke exposure
Procedure: Six week-old 3MR (n=35) or INK-ATTAC (n=35) mice were chronically exposed to cigarette smoke generated from a Teague TE-10 system, an automatically-controlled cigarette smoking machine that produces a combination of side-stream and mainstream cigarette smoke in a chamber, which is transported to a collecting and mixing chamber where varying amounts of air is mixed with the smoke mixture. […] Mice received a total of 6 hours of cigarette smoke exposure per day, 5 days a week for 6 months. Each lighted cigarette (3R4F research cigarettes containing 10.9 mg of total particulate matter (TPM), 9.4 mg of tar, and 0.726 mg of nicotine, and 11.9 mg carbon monoxide per cigarette [University of Kentucky, Lexington, Ky.]) was puffed for 2 seconds and once every minute for a total of 8 puffs, with the flow rate of 1.05 L/min, to provide a standard puff of 35 cm^3. The smoke machine was adjusted to produce a mixture of side stream smoke (89%) and mainstream smoke (11%) by smoldering 2 cigarettes at one time. The smoke chamber atmosphere was monitored for total suspended particulates (80-120 mg/m^3) and carbon monoxide (350 ppm). Beginning at day 7, (10) INK-ATTAC and (10) 3MR mice were treated with AP20187 (3×per week) or gancyclovir (5 consecutive days of treatment followed by 16 days off drug, repeated until the end of the experiment), respectively. An equal number of mice received the corresponding vehicle. The remaining 30 mice (15 INK-ATTAC and 15 3MR) were evenly split with 5 of each genetically modified strain placed into three different treatment groups. One group (n=10) received Nutlin-3A (25 mg/kg dissolved in 10% DMSO/3% Tween-20 in PBS, treated 14 days consecutively followed by 14 days off drug, repeated until the end of the experiment). One group (n=10) received ABT-263 (Navitoclax) (100 mg/kg dissolved in 15% DMSO/5% Tween-20, treated 7 days consecutively followed by 14 days off drug, repeated until the end of the experiment), and the last group (n=10) received only the vehicle used for ABT-263 (15% DMSO/5% Tween-20), following the same treatment regimen as ABT-263.
After two months of cigarette smoke exposure, lung function was assessed by monitoring oxygen saturation using the MouseSTAT PhysioSuite pulse oximeter (Kent Scientific). Animals were anesthetized with isoflurane (1.5%) and the toe clip was applied. Mice were monitored for 30 seconds and the average peripheral capillary oxygen saturation (SpO2) measurement over this duration was calculated.

[2] = system: 3MR mice with bleomycin induced lung injury; assay: Bleomycin induced lung injury model; type: in vivo, mouse; conditions: for lung compliance (static and dynamic) / lung elastance: 21 days post-bleomycin, Nutlin-3A data not statistically significant
Procedure: One animal model study assessed the effect of clearance of senescence cells in the transgenic mouse strain 3MR that has bleomycin induced lung injury. […] Control mice were administered saline. The day following bleomycin treatment, ganciclovir (GCV) (25 mg/kg in PBS) was administered. 3MR mice were treated via intraperitoneal injection with ganciclovir for 5 consecutive days, followed by 5 days of rest, followed by a second treatment cycle of 5 consecutive days. Untreated mice received an equal volume of vehicle. At 7, 14, and 21 days post-bleomycin treatment, lung function was assessed by monitoring oxygen saturation using the MouseSTAT PhysioSuite pulse oximeter (Kent Scientific). Animals were anesthetized with isoflurane (1.5%) and a toe clip was applied. Mice were monitored for 30 seconds and the average peripheral capillary oxygen saturation (SpO2) measurement over this duration was calculated. […] At 21 days post-bleomycin treatment, airway hyper-reactivity (AHR) of mice was examined. AHR of mice was measured by methacholine challenge while other parameters of lung function (airway mechanics, lung volume and lung compliance) were determined using a SCIREQ flexiVent ventilator. While under ketamine/xylazine anesthesia and subjected to cannulation of the trachea via a tracheostomy (19Fr blunt Luer cannula), airway resistance (elastance) and compliance of mice were assessed at baseline and in response to increasing concentrations of methacholine (0 to 50 mg/ml in PBS) delivered via nebulization (AeroNeb) as described in Aravamudan et al. (Am. J. Physiol. Lung Cell. Mol. Physiol. (2012) 303:L669-L6810). Animals were maintained at 37° C., and while under muscle paralysis (pancuronium); airway function was measured by using the FlexiVent ventilator and lung mechanics system (SCIREQ, Montreal, Quebec, Canada), which was housed on Stabile 8. […] As shown in FIGS. 60B-C, bleomycin administration reduced static compliance and (dynamic) compliance in vehicle treated mice. […] Mice were euthanized by i.p injection of pentobarbital. Bronchoalveolar lavage (BAL) fluids and lungs is obtained and analyzed. Hydroxyproline content of lungs is measured as described in Christensen et al. (1999, Am. J. Pathol. 155:1773-1779), and quantitative histopathology is performed. RNA is extracted from lung tissue to measure senescence cell markers by qRT-PCR in treated and control mice.

| SMILES | SpO2 levels versus untreated controls [1] | lung compliance (static and dynamic) [2] | lung elastance [2] | peripheral capillary oxygen saturation (SpO2) ([2]; approached normal levels at 21 days post bleomycin) |
| --- | --- | --- | --- | --- |
| COc1ccc(C2=N[C@@H](c3ccc(Cl)cc3)[C@@H](c3ccc(Cl)cc3)N2C(=O)N2CCNC(=O)C2)c(OC(C)C)c1 [Nutlin-3a] | statistically significant increases | increased lung compliance | reduced lung elastance | – |
| Nc1nc(O)c2ncn(COC(CO)CO)c2n1 [ganciclovir] | statistically significant increases | improved compliance values significantly | reduced lung elastance | higher SpO2 levels |
